Like-named read-outs stand apart in the source and are kept apart here. Marks after values point to notes of the source that are not given here.
Experiments:
[1] = system: 1X-Ab; test: Competitive antigen ELISA, cross-reactivity of 1X-Ab; type: binding, rabbit; details: for % Cross-Reaction 1X-Ab: competitive antigen ELISA, 0 = absence of inhibition or inhibition no higher than 40% at highest concentration tested (5×10^−3 M)
Procedure: (§1) Buffers and water without additives are filtered through millipore filters and kept for 1 week. BSA, antibodies, Tween™ 20 and horse radish peroxidase conjugates are added to these buffers and water just prior to use. Urine samples are usually collected 4 hours after drinking a cup of coffee (instant or brewed with approximately 100 mg of caffeine per cup) and stored at −80° C. The urine samples are diluted 10 times with sodium phosphate buffer (620 mosm, pH 7.50) and are subsequently diluted with water to give concentrations of AAMU and 1X no higher than 3×10^−6 M in the ELISA. All the pipettings are done with an eight-channel pipette, except those of the antibody and sample solutions. Starting with the last well, 100 μL of a carbonate buffer (100 mM, pH 9.6) containing 2.5 μg mL-1 antibodies are added to each well. After 90 min. at room temperature, the wells are washed three times with […] of TPB: isotonic sodium phosphate buffer (310 mosm, pH 7.50) containing 0.05% Tween™ 20.
(§2) After the initial wash, unoccupied sites are blocked by incubation for 90 min. at room temperature with 100 μL TBP containing 3% BSA. The wells are washed four times with 100 μL TPB. […] The microplate is gently shaken with an orbital shaker at room temperature for 3-4 hours. The wells are washed three times with 100 μL TPB containing 1% BSA and three times with water containing 0.05% Tween™ 20. To the washed plate is added 150 μL of a substrate buffer composed of citric acid (25 mM) and sodium phosphate dibasic buffer (50 mM, pH 5.0) containing 0.06% hydrogen peroxide and 0.04% o-phenylenediamine hydrochloride.
(§3) Buffers and water without additives were filtered through millipore filters and kept for 1 week. BSA, antibodies, Tween™ 20 and horse radish peroxidase conjugates were added to these buffers and water just prior to use. Urine samples were usually collected 4 hours after drinking a cup of coffee (instant or brewed with approximately 100 mg of caffeine per cup) and stored at −80° C. They were diluted 10 times with sodium phosphate buffer (620 mosm, pH 7.50) and were subsequently diluted with water to give concentrations of AAMU and 1X no higher than 3×10^−6 M in the ELISA. All the pipettings were done with an eight-channel pipette, except those of the antibody and sample solutions. Starting with the last well, 100 μL of a carbonate buffer (100 mM, pH 9.6) containing 2.5 μg mL-1 antibodies was pipetted. After 90 min. at room temperature, the wells were washed three times with 100 μL of TPB: isotonic sodium phosphate buffer (310 mosm, pH 7.50) containing 0.05% Tween™ 20.
(§4) After the initial wash, unoccupied sites were blocked by incubation for 90 min. at room temperature with 100 μL TBP containing 3% BSA. The wells were washed four times with 100 μL TPB. […] The microplate was gently shaken with an orbital shaker at room temperature for 3-4 hours. The wells were washed three times with 100 μL with TPB containing 1% BSA and three times with water containing 0.05% Tween™ 20. To the washed plate was added 150 μL of a substrate buffer composed of citric acid (25 mM) and sodium phosphate dibasic buffer (50 mM, pH 5.0) containing 0.06% hydrogen peroxide and 0.04% o-phenylenediamine hydrochloride. After 20 min. at room temperature with shaking, the reaction was stopped with 50 μL of 2.5 N HCl.
(§5) The cross reactivities of AAMU-Ab and 1X-Ab were tested using a wide variety of caffeine metabolites and structural analogs (Table 5 below).

[2] = system: AAMU-Ab; test: Competitive antigen ELISA, cross-reactivity of AAMU-Ab; type: binding, rabbit; details: for % Cross-Reaction AAMU-Ab: competitive antigen ELISA, 0 = absence of inhibition or inhibition no higher than 40% at highest concentration tested (5×10^−3 M)
Procedure: as §1, §2, §3, §4, §5

[3] = cited from earlier work

SMILES | % Cross-Reaction 1X-Ab [1] | % Cross-Reaction AAMU-Ab [2] | IC50 ([1]; read-out: concentration required for 50% inhibition in the competitive antigen ELISA, 1X-Ab) | IC50 ([2]; read-out: concentration required for 50% inhibition in the competitive antigen ELISA, AAMU-Ab) | adverse reactions to dapsone ([3]; fast acetylators) | adverse reactions to dapsone ([3]; slow acetylators)
Cn1c(=O)c2c(ncn2C)n(C)c1=O [1,3,7-Trimethyl Xanthine (Caffeine), 1,3,7-Trimethyl Xanthine] | 0% | 0% |  |  |  | 
Cn1c(=O)c2[nH]cnc2n(C)c1=O [1,3-Dimethyl Xanthine (Theophylline), 1,3-Dimethyl Xanthine] | 0.2% | 0% |  |  |  | 
Cn1c(=O)[nH]c2ncn(C)c2c1=O [1,7-Dimethyl Xanthine (Paraxanthine), 1,7-Dimethyl Xanthine] | 0.5% | 0% |  |  |  | 
Cn1c(=O)[nH]c2[nH]c(=O)n(C)c2c1=O [1,7-Dimethyluric acid] | 0% | 0% |  |  |  | 
Cn1c(=O)[nH]c2nc[nH]c2c1=O [1-Methyl Xanthine (1X), 1-Methyl Xanthine] | 100% | 0% | 10 µM |  |  | 
Cn1c(=O)[nH]c2[nH]c(=O)[nH]c2c1=O [1-Methyluric acid] | 11% | 0% |  |  |  | 
Cn1cnc2c1c(=O)[nH]c(=O)n2C [3,7-Dimethyl Xanthine (Theobromine), 3,7-Dimethyl Xanthine] | 0% | 0% |  |  |  | 
Cn1c(=O)[nH]c(=O)c2[nH]cnc21 [3-Methyl Xanthine] | 0% | 0% |  |  |  | 
CC(=O)Nc1c(N)n(C)c(=O)n(C)c1=O [5-Acetamino-6-amino-1,3-dimethyluracil] | 0% | 0% |  |  |  | 
CC(=O)Nc1c(N)n(C)c(=O)[nH]c1=O [5-Acetamino-6-amino-1-methyluracil] | 0% | 100% |  | 1.5 µM |  | 
CC(=O)Nc1c(N)[nH]c(=O)[nH]c1=O [5-Acetamino-6-amino-uracil] | 0% | 0.6% |  |  |  | 
Cn1cnc2[nH]c(=O)[nH]c(=O)c21 [7-Methyl Xanthine] | 0% | 0% |  |  |  | 
Cc1nc2[nH]c(=O)[nH]c(=O)c2[nH]1 [8-Methyl Xanthine] | 0% | 0% |  |  |  | 
Nc1nc2nc[nH]c2c(=O)[nH]1 [Guanine] | 0% | 0% |  |  |  | 
O=c1[nH]cnc2nc[nH]c12 [Hypoxanthine] | 0% | 0% |  |  |  | 
O=c1cc[nH]c(=O)[nH]1 [Uracil] | 0% | 0% |  |  |  | 
O=c1[nH]c(=O)c2[nH]c(=O)[nH]c2[nH]1 [Uric acid] | 0% | 0% |  |  |  | 
O=c1[nH]c(=O)c2[nH]cnc2[nH]1 [Xanthine] | 0% | 0^a % |  |  |  | 
Nc1ccc(S(=O)(=O)c2ccc(N)cc2)cc1 [dapsone] |  |  |  |  | 17% | 46%

Source: patent US20030072710A1, “Individualization of therapy with antidepressants” (McGill University, priority 2001, published 2003)
